The text below walks through data of US20110207691A1, “COBALAMIN COMPOSITIONS FOR THE TREATMENT OF CANCER” (BEBAAS, INC., priority 2006, published 2011).

Assay [1] relates to BD-MB231 breast cancer cells. Kind of assay: Cell survival count after treatment, BD-MB231 breast cancer cells. Type of assay: cell-based. To be noted: cultures grown for 48 hours, then counted. How it is done:
Cell cultures were grown and maintained using standard protocols for the respective cell line. Suitable culturing methods are described in, for example, Cancer Cell Culture: Method and Protocols (Methods in Molecular Medicine) Langdon (Ed) Humana Press, 2003 and General Techniques of Cell Culture (Handbooks in Practical Animal Cell Biology) Harrison and Rae, Cambridge University Press, 2005. Cultures were grown for 48 hours and subsequently counted to determine the number surviving after treatment with hydroxycobalamin, methylcobalamin or adenosylcobalamin and the aforementioned cobalamin analogs in combination with a nitric oxide-cobalamin complex. Determination of cell survival can be accomplished using, for example, a hemocytometer and Trypan Blue staining. […] Total number of cells can be determined living and dead cells can be determined and treatments compared.

The next assay deals with WM9 melanoma cells. Particulars: cited from earlier work.

Several values for one entry are separate records, joined by “and”; a condition that tells them apart may be missing. Equal values may be shown once.

For `C/C1=C2/[N-][C@H]([C@H](CC(N)=O)[C@@]2(C)CCC(=O)NC[C@@H](C)OP(=O)([O-])O[C@H]2[C@@H](O)[C@@H](n3cnc4cc(C)c(C)cc43)O[C@@H]2CO)[C@]2(C)N=C(/C(C)=C3N=C(/C=C4N=C1[C@@H](CCC(N)=O)C\4(C)C)[C@@H](CCC(N)=O)[C@]\3(C)CC(N)=O)[C@@H](CCC(N)=O)[C@]2(C)CC(N)=O.[Co+3].[OH-]` [hydroxycobalamin], the “number of surviving cells (mean)” value in assay [1] is 472 and 729 and 728.

For nitrosylcobalamin, in the assay on WM9 melanoma cells, the “effect on WM9 melanoma cells” value was “anti-proliferative effect”.
